Several values for one entry are separate records, joined by “and”; a condition that tells them apart may be missing. Equal values may be shown once.
Experiments:
C57BL/6J mice = experiment: DSS-induced colitis mouse model, ileum histology; type: in vivo; conditions: for COLITIS SCORING mean ± SEM: group mean, n = 9, 3% DSS; for COLITIS SCORING mean ± SEM / COLITIS SCORING (sum) / Depletion of goblet cells score / Edema score / Erosion (epithelial cell damage) score / Leucocytes Infiltration score: Day 7; for COLITIS SCORING (sum) / Depletion of goblet cells score / Edema score / Erosion (epithelial cell damage) score / Leucocytes Infiltration score: ileum histology, individual mouse, 3% DSS
Description: The objective of this study was to determine the prophylactic efficacy of MRX029 in a DSS-induced colitis mouse model, upon repeated oral administration.
Tacrolimus was dosed at 1 mg/kg/day
Valproic acid was dosed at 200 mg/kg/day
PBS, YCFA and bacterial cultures were dosed at 200 μL/day
PBS, YCFA and live bacteria were be daily administered per os (PO) under a fixed volume of 200 μL/mouse
Tacrolimus will be daily administered subcutaneously (SC) under a volume of 10 mL/kg Valproic acid will be daily administered per os (PO) under a volume of 10 mL/kg
Each of sixty three, 6 week old healthy male C57BL/6J mice were obtained from Charles River (France) and individually identified and labelled with a specific code. Each treatment group (9 animals/group) were housed in three different cages.
Animals were dosed by extracting the dosing aliquot from the Hungate tube using a syringe and a 0.8×40 mm needle injected through the septum. The Hungate tube was mixed by inversion before the dosing aliquot was extracted. The first 50-100 μL through the gavage needle and each mouse was dose with 200 μL of culture by oral gavage
Days −7 to Day −1: Treatment with bacteria and reference substances according the treatment table above • Once daily oral administration of PBS, YCF A or Bacteria—200 μL per mouse • Once daily oral administration of Valproic acid at 200 mg/kg/day under a volume of 10 mL/kg
From Day O to Day+7: DSS administration • Administration of 3% DSS in the drinking water
From Day O to Day+6: Treatment with bacteria and reference substances • Once daily oral administration of PBS, YCFA or Bacteria—200 μL per mouse • Once daily oral administration of Valproic acid-200 mg/kg in sterile distilled water—10 mL/kg • Once daily SC administration of Tacrolimus—1 mg/kg in sterile 1% Tween80, 0.9% NaCl −10 mL/kg
Day +7: Sacrifice of all groups and tissue harvesting • Euthanasia of animals was performed under gas anesthesia (lsoflurane) followed by exsanguination and cervical dislocation. Euthanasia methods used are those recommended for mice and rats by European directive 20 I 0/63/CE and the procedure describing euthanasia methods was approved by IACUC. • Laparotomy and ileum harvesting, just upstream of the caecum (from 0.5 cm and on)—all tissue harvested from exactly the same area between all mice: • 1.5 cm swiss-rolled ileum was harvested for histology, the closest to the caecum
Ileum Swiss-rolls specimens were embedded in paraffin and sections of 5 μm thickness were cut and mounted on SuperFrost Ultra plus glass slides. HP (Hematoxylin-Phloxin) staining & AB-PAS (Alcian Blue-Periodic Acid Schiff) staining were performed to visualize histomorphologic changes. A scoring based on edema, erosion, loss of crypts/goblet cells and infiltrates was established on each animal, using the criteria in the following table: […]

histone deacetylase [1] = experiment: Histone deacetylase activity in whole HT-29 cells; type: cell-based; conditions: pure substance; for total HDAC activity inhibition: whole cells or lysate not distinguished
Description: The cell line HT-29 was used because histone deacetylase is present.
Cell free supernatants of stationary phase bacterial cultures were isolated by centrifugation and filtering in a 0.22 uM filter. HT-29 cells were used 3 days' post confluence and stepped down in 1 mL DTS 24 hours prior to commencement of the experiment. The HT-29 cells were challenged with 10% cell free supernatant diluted in DTS and was is left to incubate for 48 hours. […] extraction kit and samples were snap frozen prior to HDAC activity measurement. HDAC activity was assessed fluorometrically using the Sigma Aldrich (UK) kit.
(§1) To investigate which metabolites were responsible for the strain-induced HDAC inhibition, different concentrations of hexanoic acid, valeric acid and sodium butyrate were measured for their HDAC inhibition on whole HT-29 cells and on HT-29 cell lysate.

IL-6 = IL-6 secretion by U373 glioblastoma astrocytoma cells (ELISA); type: cell-based, human; conditions: for LPS-induced secretion of IL-6 in U373 cells, SCFAs: LPS pre-treatment 1 h, increasing concentrations of pure fatty acid
Description: MG U373 is a human glioblastoma astrocytoma derived from a malignant tumour and were purchased from Sigma-Aldrich (cat n. 08061901-1VL). MG U373 human glioblastoma astrocytoma cells were grown in MEM (Sigma Aldrich, cat n. M-2279) supplemented with 10% FBS, 1% Pen Strep, 4 mM L-Glut, 1×MEM Non essential Amino Acid solution and 1× Sodium Pyruvate.
Once grown the MG U373 cells were plated on 24-well plate at 100,000 cells/well. The cells were treated with LPS (1 ug/mL) alone or with 10% of bacteria supernatant from MRx0029 for 24 h. A control was also performed where the cells were incubated in untreated media. Afterwards the cell free supernatants were collected, centrifuged at 10,000 g for 3 min at 4° C. IL-6 was measured using the Human IL-6 ELISA Kit from Peprotech (cat n.#900-K16) according to manufacturer instructions.
Human glioblastoma astrocytoma cell line (U373), were maintained in 25 ml MEME 4.5 g/L D-glucose supplemented with 10% heat-inactivated FBS, 4 mM L-Glutamine, 100 U/ml penicillin, 100 μg/ml streptomycin and 5 μg/ml plasmocin, 1% Non-Essential Amino Acids, 1% Sodium Pyruvate (referred to as full growth media).
Cells were plated in 24-well plates at a density of 100,000 cells/well in 1 ml of full growth media and left to rest at 37° C./5% CO2 for 72 h. On the day of the treatment, the media was removed from each well, cells were rinsed with 0.5 ml wash media (serum free MEME), 0.9 ml stimulation media (MEME media containing 2% FBS) containing 1 μg/ml LPS was added to the appropriate wells and incubated at 37° C. and 5% CO2. After 1 h pre-incubation, cells were removed from CO2 incubator and treated with 100 μl bacteria supernatant. YCFA+ media was used as control. […]
Secretion of IL-6 was analysed using hIL-6 Standard ELISA Kits, according to the manufacturer's protocol in the cell-free supernatants from U373 cells treated as described above. Samples were measured at 405 nm with correction wavelength set at 655 nm on a microplate reader (iMark, Bio-Rad). Raw data were plotted and analysed using GraphPad Prism 7 software. […]

histone deacetylase [2] = experiment: HDAC inhibition on HT-29 cell lysate; type: biochemical; conditions: pure substance, different concentrations
Description: as §1

## C=CC[C@@H]1/C=C(\C)C[C@H](C)C[C@H](OC)[C@H]2O[C@@](O)(C(=O)C(=O)N3CCCC[C@H]3C(=O)O[C@H](/C(C)=C/[C@@H]3CC[C@@H](O)[C@H](OC)C3)[C@H](C)[C@@H](O)CC1=O)[C@H](C)C[C@@H]2OC [Tacrolimus]
C57BL/6J mice; DSS animals versus vehicle DSS groups
  leukocyte infiltration in the ileum, group result: reduced leukocyte infiltration comparable to controls
C57BL/6J mice
  COLITIS SCORING mean ± SEM: 0.44
  COLITIS SCORING (sum): 0 (6×) and 2 and 1 (2×)
  Depletion of goblet cells score: 0
  Edema score: 0
  Erosion (epithelial cell damage) score: 0
  Leucocytes Infiltration score: 0 (6×) and 2 and 1 (2×)

## CCCC(CCC)C(=O)O [Valproic acid, Valproic Acid]
C57BL/6J mice
  COLITIS SCORING mean ± SEM: 0.67
  COLITIS SCORING (sum): 2 (2×) and 1 (2×) and 0 (5×)
  Depletion of goblet cells score: 0
  Edema score: 0
  Erosion (epithelial cell damage) score: 0
  Leucocytes Infiltration score: 2 (2×) and 1 (2×) and 0 (5×)

## CCCCCC(=O)O [hexanoic acid]
Histone deacetylase [1]
  total HDAC activity inhibition: did show significant inhibitory activity
IL-6
  LPS-induced secretion of IL-6 in U373 cells, SCFAs: did not inhibit IL-6 secretion

## CCCC(=O)[O-].[Na+] [sodium butyrate]
Histone deacetylase [1]; different concentrations
  HDAC inhibition on whole HT-29 cells: significant (P<0.05) inhibition of HDAC activity
Histone deacetylase [1]
  total HDAC activity inhibition: significant HDAC inhibition
Histone deacetylase [2]
  HDAC inhibition on HT-29 cell lysate: significant (P<0.05) inhibition of HDAC activity
IL-6
  LPS-induced secretion of IL-6 in U373 cells, SCFAs: inhibited LPS-induced secretion of IL-6 in U373 cells in a concentration-dependent manner
IL-6; absence of LPS
  basal IL-6 secretion in U373 cells: decreased the basal level of IL-6

## CCCCC(=O)O [valeric acid]
Histone deacetylase [1]
  total HDAC activity inhibition: significant HDAC inhibition
Histone deacetylase [1]; listed as Valeric acid
  total HDAC activity inhibition: inhibited total HDAC activity
